From patent publication US6737383B1, “Herbicidal oxadiazolidines” (priority 1999, dated 2004)

What was measured:
[1] = tested on: bedstraw; assay: Test B pre/postemergence bedstraw; format: in vivo, Galium aparine
Method in brief: (§1)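 Response is a visual 0-to-10 score relative to untreated plants, where 0 means no effect and 10 means complete control, taken twelve to sixteen days after application. Treatments went onto soil at planting and onto foliage of 1- to 4-leaf plants, using a surfactant-containing non-phytotoxic solvent.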

[2] = tested on: blackgrass; assay: Test B pre/postemergence blackgrass; format: in vivo, Alopecurus myosuroides
Method in brief: as §1

[3] = tested on: surinam grass; assay: Test B pre/postemergence surinam grass; format: in vivo, Brachiaria decumbens
Method in brief: as §1

[4] = tested on: cocklebur; assay: Test B pre/postemergence cocklebur; format: in vivo, Xanthium strumarium
Method in brief: as §1

[5] = tested on: corn; assay: Test B pre/postemergence corn; format: in vivo, Zea mays
Method in brief: as §1

[6] = tested on: crabgrass; assay: Test B pre/postemergence crabgrass; format: in vivo, Digitaria sanguinalis
Method in brief: as §1

[7] = tested on: giant foxtail; assay: Test B pre/postemergence giant foxtail; format: in vivo, Setaria faberii
Method in brief: as §1

[8] = tested on: pigweed; assay: Test B pre/postemergence pigweed; format: in vivo, Amaranthus retroflexus
Method in brief: as §1

[9] = tested on: soybean; assay: Test B pre/postemergence soybean; format: in vivo, Glycine max
Method in brief: as §1

[10] = tested on: sugar beet; assay: Test B pre/postemergence sugar beet; format: in vivo, Beta vulgaris
Method in brief: as §1

[11] = tested on: velvetleaf; assay: Test B pre/postemergence velvetleaf; format: in vivo, Abutilon theophrasti
Method in brief: as §1

[12] = tested on: wild oat; assay: Test B pre/postemergence wild oat; format: in vivo, Avena fatua
Method in brief: as §1

[13] = tested on: purple nutsedge; assay: Test B pre/postemergence purple nutsedge; format: in vivo, Cyperus rotundus
Method in brief: as §1

[14] = tested on: rice; assay: Test B flood test rice; format: in vivo, Oryza sativa
Method in brief: (§2)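 Read-out is a visual response score from 0 (no effect) to 10 (complete control), assigned by comparison with untreated controls. Treatment was applied at the 2-leaf stage, and plants stayed in the greenhouse for twelve to sixteen days before scoring.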

[15] = tested on: smallflower flatsedge; assay: Test B flood test smallflower flatsedge; format: in vivo, Cyperus difformis
Method in brief: as §2

[16] = tested on: bamyardgrass; assay: Test B flood test barnyardgrass; format: in vivo, Echinochloa crus-galli
Method in brief: as §2

[17] = Preemergence, Rate 62 g/ha, scale 0 to 10 (0 no effect, 10 complete control)
[18] = Preemergence, Rate 125 g/ha, 0 is no effect, 10 is complete control
[19] = Preemergence, Rate 250 g/ha, scale 0 to 10, 0 is no effect, 10 is complete control
[20] = Preemergence, Rate 500 g/ha, scale 0 to 10 (0 no effect, 10 complete control)
[21] = Rate 500 g/ha, Postemergence, scale 0 to 10, 0 no effect, 10 complete control
[22] = Postemergence, Rate 125 g/ha, scale of 0 to 10 where 0 is no effect and 10 is complete control
[23] = Rate 62 g/ha, Postemergence, scale of 0 to 10 where 0 is no effect and 10 is complete control
[24] = Rate 250 g/ha, Postemergence, scale 0 to 10, 0 is no effect, 10 is complete control
[25] = Postemergence, Rate 62 g/ha, scale 0 to 10, 0 is no effect, 10 is complete control
[26] = Postemergence (flood test species), Rate 125 g/ha, scale of 0 to 10 where 0 is no effect and 10 is complete control
[27] = Rate 62 g/ha, Postemergence section, flood test species, scale of 0 to 10 where 0 is no effect and 10 is complete control
[28] = Rate 250 g/ha, Postemergence (flood test), scale 0 to 10, 0 is no effect, 10 is complete control
[29] = Rate 250 g/ha, headed Pre-emergence (flood test species), scale 0 to 10 (0 no effect, 10 complete control)
[30] = Rate 500 g/ha, headed Pre-emergence (flood test species), scale 0 to 10 (0 no effect, 10 complete control)
[31] = Rate 500 g/ha, listed under Postemergence (flood test species), scale 0 to 10, 0 no effect, 10 complete control
[32] = Rate 1000 g/ha, Pre-emergence (as headed), scale 0 to 10
[33] = Rate 2000 g/ha, Pre-emergence (as headed), scale 0 to 10

Question: What does the source list for `CC(C)N(C(=O)n1oc(=O)n(-c2ccnn2C)c1=O)c1ccc(F)cc1` [Compound 124]?
Answer: Bedstraw plant response rating [1, 17]: 0; Bedstraw plant response rating (0 to 10 scale) [1, 18]: 0; Bedstraw plant response rating [1, 19]: 0; Bedstraw plant response rating [1, 20]: 0; Bedstraw plant response rating [1, 21]: 0; Blackgrass plant response rating [2, 22]: 0; Blackgrass plant response rating [2, 17]: 0; Blackgrass plant response rating (0 to 10 scale) [2, 18]: 0; Blackgrass plant response rating [2, 19]: 0; Blackgrass plant response rating [2, 20]: 0; Blackgrass plant response rating [2, 23]: 0; Plant response rating, Blackgrass [2, 24]: 0; Blackgrass plant response rating [2, 21]: 0; B. signalgrass plant response rating [3, 25]: 0; B. signalgrass plant response rating [3, 22]: 0; B. signalgrass plant response rating [3, 17]: 0; B. signalgrass plant response rating (0 to 10 scale) [3, 18]: 0; B. signalgrass plant response rating [3, 19]: 0; B. signalgrass plant response rating [3, 20]: 0; Plant response rating, B. signalgrass [3, 24]: 0; B. signalgrass plant response rating ([3]; Rate 500 g/ha, Postemergence, scale of 0 to 10 where 0 is no effect and 10 is complete control): 0; Cocklebur plant response rating [4, 22]: 0; Cocklebur plant response rating [4, 17]: 0; Cocklebur plant response rating [4, 19]: 0; Cocklebur plant response rating [4, 20]: 0; Cocklebur plant response rating [4, 23]: 0; Plant response rating, Cocklebur [4, 24]: 0; Cocklebur plant response rating [4, 21]: 0; Corn plant response rating [5, 22]: 0; Corn plant response rating [5, 17]: 0; Corn plant response rating (0 to 10 scale) [5, 18]: 0; Corn plant response rating [5, 19]: 0; Corn plant response rating [5, 20]: 0; Corn plant response rating [5, 23]: 0; Plant response rating, Corn [5, 24]: 0; Corn plant response rating [5, 21]: 0; Crabgrass plant response rating [6, 22]: 0; Crabgrass plant response rating [6, 17]: 0; Crabgrass plant response rating (0 to 10 scale) [6, 18]: 0; Crabgrass plant response rating [6, 19]: 0; Crabgrass plant response rating [6, 20]: 0; Crabgrass plant response rating [6, 23]: 0; Plant response rating, Crabgrass [6, 24]: 0; Crabgrass plant response rating [6, 21]: 0; Giant foxtail plant response rating [7, 22]: 0; Giant foxtail plant response rating [7, 17]: 0; Giant foxtail plant response rating (0 to 10 scale) [7, 18]: 0; Giant foxtail plant response rating [7, 19]: 0; Giant foxtail plant response rating [7, 20]: 0; Giant foxtail plant response rating [7, 23]: 0; Plant response rating, Giant foxtail [7, 24]: 0; Giant foxtail plant response rating [7, 21]: 0; Redroot pigweed plant response rating [8, 22]: 0; Redroot pigweed plant response rating [8, 17]: 0; Redroot pigweed plant response rating (0 to 10 scale) [8, 18]: 0; Redroot pigweed plant response rating [8, 19]: 0; Redroot pigweed plant response rating [8, 20]: 0; Redroot pigweed plant response rating [8, 23]: 0; Plant response rating, Redroot pigweed [8, 24]: 0; Redroot pigweed plant response rating [8, 21]: 0; Soybean plant response rating [9, 22]: 3; Soybean plant response rating [9, 17]: 0; Soybean plant response rating (0 to 10 scale) [9, 18]: 0; Soybean plant response rating [9, 19]: 0; Soybean plant response rating [9, 20]: 0; Soybean plant response rating [9, 23]: 0; Plant response rating, Soybean [9, 24]: 4; Soybean plant response rating [9, 21]: 5; Sugarbeets plant response rating [10, 22]: 0; Sugarbeets plant response rating [10, 17]: 0; Sugarbeets plant response rating (0 to 10 scale) [10, 18]: 0; Sugarbeets plant response rating [10, 19]: 0; Sugarbeets plant response rating [10, 20]: 0; Sugarbeets plant response rating [10, 23]: 0; Plant response rating, Sugarbeets [10, 24]: 0; Sugarbeets plant response rating [10, 21]: 0; Velvetleaf plant response rating [11, 22]: 0; Velvetleaf plant response rating [11, 17]: 0; Velvetleaf plant response rating (0 to 10 scale) [11, 18]: 0; Velvetleaf plant response rating [11, 19]: 0; Velvetleaf plant response rating [11, 20]: 0; Velvetleaf plant response rating [11, 23]: 0; Plant response rating, Velvetleaf [11, 24]: 0; Velvetleaf plant response rating [11, 21]: 0; Wild oats plant response rating [12, 22]: 0; Wild oats plant response rating [12, 17]: 0; Wild oats plant response rating (0 to 10 scale) [12, 18]: 0; Wild oats plant response rating [12, 19]: 0; Wild oats plant response rating [12, 20]: 0; Wild oats plant response rating [12, 23]: 0; Plant response rating, Wild oats [12, 24]: 0; Wild oats plant response rating [12, 21]: 0; Nutsedge plant response rating [13, 22]: 0; Nutsedge plant response rating [13, 17]: 0; Nutsedge plant response rating (0 to 10 scale) [13, 18]: 0; Nutsedge plant response rating [13, 19]: 0; Nutsedge plant response rating [13, 20]: 0; Nutsedge plant response rating [13, 23]: 0; Plant response rating, Nutsedge [13, 24]: 0; Nutsedge plant response rating [13, 21]: 0; Rice plant response rating [14, 26]: 0; Rice plant response rating [14, 27]: 0; Plant response rating, Rice [14, 28]: 0; Rice plant response rating [14, 29]: 0; Plant response rating, Rice [14, 30]: 0; Rice plant response rating [14, 31]: 0; Rice plant response rating [14, 32]: 0; Rice plant response rating [14, 33]: 0; S. Flatsedge plant response rating [15, 26]: 0; S. Flatsedge plant response rating ([15]; Pre-emergence, Rate 1000 g/ha, scale 0 to 10 (0 no effect, 10 complete control)): 0; S. Flatsedge plant response rating [15, 27]: 0; Plant response rating, S. Flatsedge [15, 28]: 0; S. Flatsedge plant response rating [15, 29]: 0; Plant response rating, S. Flatsedge [15, 30]: 0; S. Flatsedge plant response rating [15, 31]: 0; S. Flatsedge plant response rating [15, 33]: 0; Barnyardgrass plant response rating [16, 26]: 0; Barnyardgrass plant response rating [16, 25]: 0; Plant response rating, Barnyardgrass [16, 28]: 0; Barnyardgrass plant response rating [16, 29]: 0; Plant response rating, Barnyardgrass [16, 30]: 0; Barnyardgrass plant response rating [16, 31]: 0; Barnyardgrass plant response rating [16, 32]: 0; Barnyardgrass plant response rating ([16]; Rate 2000 g/ha, Pre-emergence (as headed), scale 0 to 10, 0 no effect, 10 complete control): 0
